Data taken from patent US11613768B2, “Microbial production of 2-phenylethanol from renewable substrates” (Arizona Board of Regents on behalf of Arizona State …, priority 2017, dated 2023).

Key:
E. coli NST74 = assay: Assaying 2PE toxicity: growth challenge with exogenous 2PE; type: cell-based, Escherichia coli
Experimental: Error bars reported at one standard deviation from triplicate experiments.
The effects of 2PE on E. coli growth rate and yield was determined by monitoring the impacts of its exogenous addition at increasing final concentrations on growing cultures. Approximately 1 ml of an E. coli NST74 seed culture was used to inoculate 50 ml of LB broth in a 250 mL shake flask. When cultures reached OD600˜0.6, 2PE was added to the flasks at an array of final concentrations ranging from 0 to 2 g/L. Culturing then resumed for an additional 6 h with periodic monitoring of OD600.
To assess if 2PE production in these initial strains was perhaps limited by end-product inhibition, a growth challenge study was performed determine to the response of E. coli growth to the addition of exogenous 2PE at a range of increasing final concentrations (FIG. 4).

E. coli = conditions: prior report, Kang et al., 2014; cited from earlier work
ARO10 = molecular target: T1, ARO10 (Saccharomyces cerevisiae, UniProt Q06408); conditions: ARO10 (PPDC), substrate phenylpyruvate; cited from earlier work
T1 sequence (Q06408 1-635): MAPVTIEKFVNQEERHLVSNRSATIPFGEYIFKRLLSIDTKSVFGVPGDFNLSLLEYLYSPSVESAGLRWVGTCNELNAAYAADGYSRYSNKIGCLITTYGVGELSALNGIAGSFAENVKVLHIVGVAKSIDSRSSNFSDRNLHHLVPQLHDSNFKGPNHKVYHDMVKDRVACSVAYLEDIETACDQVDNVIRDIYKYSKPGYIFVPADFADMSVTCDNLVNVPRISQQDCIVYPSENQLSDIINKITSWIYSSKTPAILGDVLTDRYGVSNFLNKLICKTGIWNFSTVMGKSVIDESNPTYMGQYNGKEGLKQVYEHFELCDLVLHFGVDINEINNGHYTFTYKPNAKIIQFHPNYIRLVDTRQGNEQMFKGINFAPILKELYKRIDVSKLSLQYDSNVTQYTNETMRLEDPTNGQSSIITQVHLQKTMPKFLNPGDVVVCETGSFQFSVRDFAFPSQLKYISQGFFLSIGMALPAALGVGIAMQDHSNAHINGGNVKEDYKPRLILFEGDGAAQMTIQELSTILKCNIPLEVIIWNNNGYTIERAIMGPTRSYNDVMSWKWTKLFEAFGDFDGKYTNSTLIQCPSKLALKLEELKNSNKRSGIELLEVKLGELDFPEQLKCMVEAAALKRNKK

TyrB = TyrB (Escherichia coli, UniProt P04693); conditions: TyrB (Phe aminotransferase), substrate phenylpyruvate; cited from earlier work
[1] = exogenous 2PE added at OD600~0.6, LB broth, 6 h monitoring of OD600

TyrB, sequence (P04693 whole entry): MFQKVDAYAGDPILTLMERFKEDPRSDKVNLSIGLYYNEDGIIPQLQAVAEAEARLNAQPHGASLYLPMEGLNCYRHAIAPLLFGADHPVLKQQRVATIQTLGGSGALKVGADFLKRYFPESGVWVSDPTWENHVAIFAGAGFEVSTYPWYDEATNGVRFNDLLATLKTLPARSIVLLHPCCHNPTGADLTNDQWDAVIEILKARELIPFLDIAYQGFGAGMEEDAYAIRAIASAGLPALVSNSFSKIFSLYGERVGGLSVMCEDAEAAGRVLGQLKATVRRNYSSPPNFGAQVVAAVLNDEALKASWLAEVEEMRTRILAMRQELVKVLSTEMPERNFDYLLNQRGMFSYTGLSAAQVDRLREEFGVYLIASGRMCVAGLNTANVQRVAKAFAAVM

Row | Structure (SMILES) | toxicity threshold (E. coli NST74; E. coli growth) [g/L] | 2PE concentration at which growth rate and yield were reduced (E. coli NST74; [1]) [g/L] | 2PE concentration at which severe growth inhibition occurred (E. coli NST74; [1]) | level reported to inhibit E. coli (E. coli) [µg/mL] | Km (ARO10) [µM] | Km (TyrB) [µM]
1 | OCCc1ccccc1 [2PE, 2-phenylethanol] | ~2 | 1 | about 2 g/L | ~1000 |  | 
2 | O=C(O)C(=O)Cc1ccccc1 [phenylpyruvate] |  |  |  |  | 100 | 12
